“And” between values parts separate entries of the source, which are not always exact repeats. Equal values may be shown once.
Columns and labels:
GLP-1+ L cells = assay: Density of GLP-1+ L-cells on differentiated colonic monolayers; type: cell-based, human; conditions: for formation of L-cells: addition during differentiation, 4 days
From the text: Enteroendocrine (EEC) cells within the intestinal epithelium consist of at least 15 different subtypes. Enterochromaffin (EC) cells are the most abundant subtype, comprising about 40% of EEC cells in the gastrointestinal tract. Besides EC cells, at least one other important EE subtype is L-cells, which are major regulators of the gut-brain interactions and are pivotal in regulating appetite and glucose homeostasis^4. L-cells co-secrete peptide hormones GLP-1 and PYY in response to the ingestion of food^5-8. GLP-1 stimulates the secretion of insulin from pancreatic β-cells^9,10, decreases gastric emptying and increases satiation^11. PYY slows GI motility and reduces food intake^12. Due to their important function as regulators of postprandial response to nutrients, L-cells are of specific interest in the field of obesity and diabetes^3-17. L-cells were also identified in the VIP-ALI cultured monolayers at a density of 12±2 mm^2 and constituted about 14% of the EE population (FIG. 7). However, the density of L-cells is still too low to perform a reliable functional assay of GLP-1/PYY secretion. Thus, further experiments were conducted to develop optimal protocols to enrich L-cells (see Example 7).
Experiments were conducted to systemically optimize four conditions to enrich L-cells: (1) ±ALI, (2) ±VIP, (3) R-spondin/Noggin ratio at 1:4, 1:1 and 4:1 in differentiation medium, (4) ±BIMU8 (a potent 5-HT4 agonist). The colonic stem cells were plated on a porous membrane coated with Matrigel and cultured for 3 days in growth factor-enriched medium until the cell monolayer reach confluence. Then the cells were differentiated for 4 days and the density of GLP-1^+ L cells was used as the readout (FIG. 8A). […] The R-spondin/Noggin ratio in differentiation medium also affected the density of L-cells, and the best result was obtained by using a ratio of 4/1. By using the conditions disclosed herein (ALI, VIP, R-spondin/Noggin=4/1, BIMU8), 137±12 cells/mm^2 GLP-1^+ L-cells were obtained, which is about 46 times higher than 3±2 cells/mm^2 in the previously used conditions (submerged, —VIP, R-spondin/Noggin=1/1, -BIMU8), and 11 times higher than 12±2 mm^2 in VIP-ALI culture (+ALI, +VIP, R-spondin/Noggin=1/1, -BIMU8).

[1] = system: EEC (ChgA+) and EC (5HT+) cells; assay: Number of EEC (ChgA+) and EC (5HT+) cells on monolayers by immunofluorescence staining; type: cell-based
Method: (§1) The fraction of EC among EEC remained in the range of 45-51% in these differentiation conditions, which is consistent with their fraction in the body that EC make up over 70% of the EEC population in the proximal colon and falls to around 40% in the rectum.^2 To test if the enriched EC cells increases 5HT secretion, the monolayers were stimulated with vehicle (DMSO) or forskolin (10 μM). […] The induction is 6.1× over the vehicle control (0.62±0.07 ng/mL). Therefore, the enriched EC cells improves the 5HT secretion assay by increasing the signal/background ratio.
It is likely that stem cells make lineage-fate decisions at the proliferation stage toward enterocytes and goblets cells, which are the major cell types in the intestinal epithelium. We can add signaling molecules, such as CHIR99021, to prevent the early lineage-fate decision and force the stem cells to stay at their ground state. CHIR99021 activates Wnt signaling by inhibition of GSK3. When the stem cells were cultured in EM under 3 μM CHIR99021 prior to conventional submerged culture in DM, the presence of EC cells was increased by almost 200% (FIGS. 11A and 11B). […] Besides CHIR99021, other Wnt activators (WAY316606, ABC99, IQ1, arylpyrimidine), and recombinant proteins of Wnt-3A and R-spondin (Wnt signaling enhancer) may be able to increase the formation of EC cells. We have not studied the synergistic effect of Wnt activator (in EM) and VIP-assisted ALI (in DM), but we expect the combination of both strategies will further increase the formation of EEC and EC cells.

[2] = system: EC cells in monolayers derived from human transverse colon stem cells; assay: 5HT secretion assay (ELISA of basal medium) on stem-cell-derived colonic monolayers after apical stimulation; type: cell-based; conditions: for 5HT induction: pungent food ingredient screen, apical stimulation 4 h, EC-enriched monolayers, donor 2
[3] = system: EC cells in monolayers derived from human transverse colon stem cells; assay: as above; type: cell-based
From the text: Culture conditions for intestinal epithelial monolayer platform have been optimized in a previous publication, and the medium composition for yielding the maximal expression levels of EEC cell lineage marker gene ChgA was investigated.^11 Nicotinamide and p38 MAP kinase inhibitor (SB202190), two compounds commonly used in intestinal epithelial cell culture, are removed from medium due to their suppression of differentiation towards secretory cells. Inclusion of A 8301, a TGF-β receptor signaling inhibitor, is required for proper differentiation and cell morphology of monolayer cultures. Herein, the same medium composition was adopted and the in vitro monolayers were generated from stem cells derived from human transverse colon using the traditional submerged culture. The EEC (ChgA+) and EC (5HT+) cells presented at a density of 22±5 and 10±3 mm^−2, respectively (FIG. 2A, 2B). Accordingly, the total number of EC cells in a 96-well insert (surface area=11 mm^2) is 110±33. To test if the number of EC cells is enough for functional assays, the monolayers were stimulated with vehicle (dimethyl sulfoxide [DMSO]) or forskolin (10 μM) at the apical side for 4 h, and the released 5HT from the basal side was collected and quantified (FIG. 2C). Forskolin is a potent stimulus of 5HT release though activation of the cAMP-dependent pathway.^18 In three independent experiments, stimulated 5HT secretion by forskolin was 0.97±0.34, 0.88±0.28, and 0.60±0.23 ng/mL, respectively, corresponding to 3.6×, 2.1× and 2.4× induction over the vehicle controls (0.27±0.10, 0.42±0.18 ng/mL, and 0.25±0.07 respectively). Significant inter-experiment variability was observed due to high standard deviation of the 5HT measurements: the results in the first experiment were considered to be statistically non-significant (p>0.05, t-test), statistically significant (p<0.05) in the second one, but statistically non-significant (p>0.05) again in the third experiment. The high standard deviation came from a number of sources: error in 5HT measurement through enzyme-linked immunosorbent assay (ELISA), well-to-well variation, 5HT residue (mainly from the fetal bovine serum in the medium) left in the well, and 5HT that spontaneously leached out from the apoptotic ECs during assay. To improve the reliability of 5HT secretion assay and its signal/background ratio, the number of EEC and EC cells in monolayers need to be enriched.
as §1
As the generation and storage of 5HT inside granules of EC cells depends on the cell maturation, the level of 5HT secretion is affected by the differentiation length of the monolayers. To find out the optimal duration for differentiation, the monolayers were subjected to VIP-assisted ALI culture for 3-7 days. As expected, the forskolin stimulated 5HT secretion increased with differentiation length (due to cell maturation), so did the non-stimulated basal secretion (FIG. 4E). The barrier integrity was remained (Papp<4×10^−7 cm/s) for all samples, except for those under 7 days in differentiation in which the cells may start to undergo apoptosis (FIG. 4F). 5 days in differentiation was considered to be optimal since it generated monolayers with high 5HT induction (5.7×) and monolayer barrier integrity. This duration is coincident with life span of differentiated epithelium in human colon. Unless otherwise specified, 5 days were used for differentiation in this invention. […]

[4] = system: colonic monolayers derived from human transverse colon; assay: Monolayer barrier integrity (Papp, TEER); type: cell-based; conditions: VIP-assisted ALI culture, n=6
From the text: Besides the elevated 5HT secretion, an additional advantage of VIP-assisted ALI culture is the improved barrier integrity (FIG. 4D). […] The cell respiration combined with the low diffusion rate of oxygen in the growth medium can lead to a reduced oxygen availability to the cells.^22 ALI culture can increase the oxygen availability, but the cells were stressed due to the complete dry up at the apical surface. […] Conversely, VIP-assisted ALI culture maintained a thin layer of fluid (about 0.4 mm thick) at the apical side, thus increasing the oxygen availability and at the same time as eliminating the stress from dry up. The high integrity of monolayers is needed to effectively segregates the apical and basal reservoirs to prevent the leakage of the stimulants and 5HT.

[5] = ALI, VIP, R-spondin/Noggin=4/1, BIMU8

`CC(C)n1c(=O)n(C(=O)NC2CC3CCC(C2)N3C)c2ccccc21` (stereo not drawn) [BIMU8] was tested, and the “L-cell density, times higher than VIP-ALI culture (+ALI, +VIP, R-spondin/Noggin=1/1, -BIMU8)” value (GLP-1+ L cells; [5]) was 11 times, the “L-cell density, times higher than previously used conditions (submerged, -VIP, R-spondin/Noggin=1/1, -BIMU8)” value (GLP-1+ L cells; [5]) was “about 46 times” and the “GLP-1+ L-cells density” value (GLP-1+ L cells; ALI, VIP, R-spondin/Noggin=4/1, BIMU8, 4 days differentiation) was 137±12 cells/mm^2. The “formation of L-cells” value (GLP-1+ L cells) was “increased the formation of L-cells”.

In the case of `Cc1c[nH]c(-c2cnc(NCCNc3ccc(C#N)cn3)nc2-c2ccc(Cl)cc2Cl)n1` [CHIR99021], the “increase of presence of EC cells” value ([1]; 3 μM CHIR99021 in EM prior to conventional submerged culture in DM) is reported as roughly 200%.

Compound `O=CC=Cc1ccccc1` [Cinnamaldehyde] has a 5HT induction [2] of 1.8 ×.

`COc1cc(/C=C/C(=O)CC(=O)/C=C/c2ccc(O)c(OC)c2)ccc1O` [curcumin] showed an EC50 ([2]; Homo sapiens, dose-dependent stimulation of 5HT secretion, read-out: median effective dose (E50) for 5HT secretion) of 51 µM and a 5HT induction [2] of 7.3 ×.

With `C=C[C@@]1(C)CC(=O)[C@]2(O)[C@@]3(C)[C@@H](O)CCC(C)(C)[C@@H]3[C@H](O)[C@H](OC(C)=O)[C@@]2(C)O1` [forskolin] the “5HT induction (forskolin/DMSO)” value ([3]; donor 1, 2, and 5) was greater than 5.0, the “5HT induction (forskolin/DMSO)” value ([3]; donor 3 and 4) was less than 3.6 and the “stimulated 5HT secretion” value ([3]; forskolin 10 μM apical 4 h, monolayers from traditional submerged culture, independent experiments) was 0.97 ± 0.34 ng/mL and 0.88 ± 0.28 ng/mL and 0.60 ± 0.23 ng/mL and 0.97 ± 0.44 ng/mL. For the same compound, the “induction of 5HT secretion over the vehicle control” value ([3]; forskolin 10 μM apical 4 h, submerged culture, three independent experiments) was 3.6 × and 2.1 × and 2.4 ×, the “induction of 5HT secretion over the vehicle control” value ([3]; forskolin 10 μM, VIP-assisted ALI culture) was 6.1 × and the “5HT secretion higher than that from submerged culture” value ([3]; forskolin 10 μM, VIP-assisted ALI vs submerged culture) was 390%. For the same compound, the “5HT secretion under forskolin stimulation” value ([3]; forskolin 10 μM, monolayer from VIP-assisted ALI culture) was 3.79 ± 0.57 ng/mL, the 5HT induction ([3]; forskolin, VIP-assisted ALI culture, 5 days in differentiation (duration study 3-7 days)) was 5.7 × and the “induction of 5HT secretion (forskolin/DMSO)” value ([3]; stem cell passage numbers 7, 9, 11, 13 and 15) was 4.1-5.7 ×. It also gave a 5HT induction [2] of 4.9 ×.

vasoactive intestinal peptide [VIP] was tested, and the “transepithelial electrical resistance (TEER)” value [4] was 842±166 ohms cm^2, the “number of EC compared with submerged culture” value ([1]; VIP added to submerged culture) was 180% and the “number of EEC compared with submerged culture” value ([1]; VIP added to submerged culture) was 177%. The “density of EC” value ([1]; combination of ALI and VIP) was 43±9 mm^−2, the “density of EEC” value ([1]; combination of ALI and VIP) was 83±11 mm^−2 and the “number of EC compared with traditional submerged culture without VIP” value ([1]; combination of ALI and VIP) was 430%. For the same compound, the “number of EEC compared with traditional submerged culture without VIP” value ([1]; combination of ALI and VIP) was 377%, the “L-cells as share of the EE population” value (GLP-1+ L cells; VIP-ALI cultured monolayers) was “about 14%” and the “formation of L-cells” value (GLP-1+ L cells) was “increased the formation of L-cells”.
